Data: US20160090556A1, “PRODUCTS COMPRISING MALODOR REDUCTION MATERIALS” (The Procter & Gamble Company, priority 2014, published 2016)
Read-outs that look alike come from different tables or passages of the source.

Assay: Liquid dish neat product liquid-air partition coefficient
Assay type: physicochemical
[1] = class code letter within Comment Code
[2] = codes K/L of the Comment Code, Table 1

| SMILES | Log of liquid dish neat product liquid-air partition coefficient (Comment Code K/L) | Comment Code: Log of liquid dish neat product liquid-air partition coefficient (code letters K, L) | Log of liquid dish neat product liquid-air partition coefficient (Comment Code K/L) [1] | further results |
| --- | --- | --- | --- | --- |
| CC(=O)CCCC(C)CCCC(C)CCCC(C)C (centres unmarked) [Material 782] | K (Log of liquid dish neat product liquid-air partition coefficient greater than or equal to −7) | – | – | – |
| CC1=CCCC2(C)CCC3CC12OC3(C)C (centres unmarked) [Material 726] | K (Log of liquid dish neat product liquid-air partition coefficient greater than or equal to −7) | K (Log of liquid dish neat product liquid-air partition coefficient greater than or equal to −7) | – | – |
| C=C(C)[C@@H]1CCC2=CCC[C@@H](C)[C@]2(C)C1 [Material 1105] | K (Log of liquid dish neat product liquid-air partition coefficient greater than or equal to −7) | – | – | – |
| COc1ccc(C=O)cc1OC [Material 1118] | – | K (Log of liquid dish neat product liquid-air partition coefficient greater than or equal to −7) | – | – |
| C=CCc1ccc(OC)cc1 [Material 119] | – | – | K (Log of liquid dish neat product liquid-air partition coefficient greater than or equal to −7) | – |
| CC1C(C)(C)C2=C(C3OC(C)(C)OC3CC2)C1(C)C (centres unmarked) [Material 23] | – | K (Log of liquid dish neat product liquid-air partition coefficient greater than or equal to −7) | K (Log of liquid dish neat product liquid-air partition coefficient greater than or equal to −7) | – |
| C=CCc1ccc(OC)c(OC)c1 [Material 110] | – | – | K (Log of liquid dish neat product liquid-air partition coefficient greater than or equal to −7) | – |
| CC(C)C1OCCC2(CC3CCC2(C)C3(C)C)O1 (centres unmarked) [Material 659] | K (Log of liquid dish neat product liquid-air partition coefficient greater than or equal to −7) | K (Log of liquid dish neat product liquid-air partition coefficient greater than or equal to −7) | – | – |
| CCOC(=O)C12CCCC1C1CCC2C1 (centres unmarked) [Material 344] | – | – | K (Log of liquid dish neat product liquid-air partition coefficient greater than or equal to −7) | – |
| CC12CCCC(O)(C1)C1CC(C)(C)C1CC2 (centres unmarked) [Material 574] | K (Log of liquid dish neat product liquid-air partition coefficient greater than or equal to −7) | K (Log of liquid dish neat product liquid-air partition coefficient greater than or equal to −7) | – | – |
| C=CCOC(=O)COC1CCCCC1 [Material 918] | – | K (Log of liquid dish neat product liquid-air partition coefficient greater than or equal to −7) | – | – |
| CC1=CC2C(C(C)C)CCC(C)(O)C2CC1 (centres unmarked) [Material 716] | K (Log of liquid dish neat product liquid-air partition coefficient greater than or equal to −7) | – | – | – |
| CC1=CCCC2(C)CCC(C(C)(C)O)CC12 (centres unmarked) [Material 712] | K (Log of liquid dish neat product liquid-air partition coefficient greater than or equal to −7) | K (Log of liquid dish neat product liquid-air partition coefficient greater than or equal to −7) | – | – |
| O=COCCc1ccccc1 [Material 956] | – | K (Log of liquid dish neat product liquid-air partition coefficient greater than or equal to −7) | – | – |
| CC(=O)OC1CC2C3C=CCC3C1C2(C)C (centres unmarked) [Material 360] | – | K (Log of liquid dish neat product liquid-air partition coefficient greater than or equal to −7) | K (Log of liquid dish neat product liquid-air partition coefficient greater than or equal to −7) | – |
| C=C1CCCC(C)(C)C1C(=O)C=CC (centres unmarked) [Material 331] | – | – | K (Log of liquid dish neat product liquid-air partition coefficient greater than or equal to −7) | – |
| CC(=O)OCCc1ccccc1 [Material 832] | – | K (Log of liquid dish neat product liquid-air partition coefficient greater than or equal to −7) | – | – |
| CCC(=O)OCCc1ccccc1 [Material 835] | – | K (Log of liquid dish neat product liquid-air partition coefficient greater than or equal to −7) | – | – |
| CC1=CCC(/C=C/C(C)(C)C(C)O)C1(C)C (centres unmarked) [Material 985] | K (Log of liquid dish neat product liquid-air partition coefficient greater than or equal to −7) | – | – | – |
| C[C@@H]1CC[C@H]2[C@@H]1[C@H]1[C@@H](CC[C@]2(C)O)C1(C)C [Material 1140] | – | K (Log of liquid dish neat product liquid-air partition coefficient greater than or equal to −7) | – | Comment Code: Log of liquid dish neat product liquid-air partition coefficient [2]: K (Log of liquid dish neat product liquid-air partition coefficient greater than or equal to −7) |
| CC1C2CC(CC2C2CCC(O)CC2)C1(C)C (centres unmarked) [Material 230] | – | K (Log of liquid dish neat product liquid-air partition coefficient greater than or equal to −7) | K (Log of liquid dish neat product liquid-air partition coefficient greater than or equal to −7) | – |
| C=CCCC(=O)C1CCCC(C)(C)C1 (centres unmarked) [Material 334] | – | – | K (Log of liquid dish neat product liquid-air partition coefficient greater than or equal to −7) | – |

| SMILES | Log of liquid dish neat product liquid-air partition coefficient (Comment Code K/L) | Comment Code: Log of liquid dish neat product liquid-air partition coefficient (code letters K, L) | Log of liquid dish neat product liquid-air partition coefficient (Comment Code K/L) [1] | further results |
| --- | --- | --- | --- | --- |
| C/C=C\c1ccc(O)c(OC)c1 [Material 528] | – | K (Log of liquid dish neat product liquid-air partition coefficient greater than or equal to −7) | – | – |
| CC(=O)C1=C(C)[C@@H]2C[C@@]3(C1)[C@H](C)CC[C@H]3C2(C)C [Material 1129] | – | K (Log of liquid dish neat product liquid-air partition coefficient greater than or equal to −7) | – | Comment Code: Log of liquid dish neat product liquid-air partition coefficient [2]: K (Log of liquid dish neat product liquid-air partition coefficient greater than or equal to −7) |
| COc1ccc(COC(C)=O)cc1 [Material 664] | – | K (Log of liquid dish neat product liquid-air partition coefficient greater than or equal to −7) | – | – |
| c1ccc(COCc2ccccc2)cc1 [Material 454] | – | K (Log of liquid dish neat product liquid-air partition coefficient greater than or equal to −7) | – | – |
| C=CCCC(=O)/C=C/C1C(C)=CCCC1(C)C (centres unmarked) [Material 559] | – | – | K (Log of liquid dish neat product liquid-air partition coefficient greater than or equal to −7) | – |
| C=C(C)C1CCC2(C)CCC=C(C)C2C1 (centres unmarked) [Material 692] | K (Log of liquid dish neat product liquid-air partition coefficient greater than or equal to −7) | – | – | – |
| CC=CC(=O)C1C(C)=CCCC1(C)C (centres unmarked) [Material 1074] | – | K (Log of liquid dish neat product liquid-air partition coefficient greater than or equal to −7) | – | – |
| CC1=CCC(O)(C(C)C)CC1 (centres unmarked) [Material 800] | K (Log of liquid dish neat product liquid-air partition coefficient greater than or equal to −7) | – | – | – |
| CC(O)C(C)Cc1ccccc1 (centres unmarked) [Material 82] | – | – | K (Log of liquid dish neat product liquid-air partition coefficient greater than or equal to −7) | – |
| C=CCc1ccc(O)c(OC)c1 [Material 375] | – | – | K (Log of liquid dish neat product liquid-air partition coefficient greater than or equal to −7) | – |
| CC12CCCC(C)(CC1)C2=NO [Material 921] | – | K (Log of liquid dish neat product liquid-air partition coefficient greater than or equal to −7) | – | – |
| CC(C)C(=O)OC1CC2CC1C1C=CCC21 (centres unmarked) [Material 487] | – | K (Log of liquid dish neat product liquid-air partition coefficient greater than or equal to −7) | K (Log of liquid dish neat product liquid-air partition coefficient greater than or equal to −7) | – |
| C=CC(C)=CCCC(C)(C)O [Material 42] | – | – | K (Log of liquid dish neat product liquid-air partition coefficient greater than or equal to −7) | – |
| COCCOC(C)OCc1ccccc1 (centres unmarked) [Material 768] | K (Log of liquid dish neat product liquid-air partition coefficient greater than or equal to −7) | – | – | – |
| C=C[C@@](C)(O)CCC=C(C)C [Material 1017] | – | K (Log of liquid dish neat product liquid-air partition coefficient greater than or equal to −7) | – | – |
| CC(C)C(=O)OC1CC2CCC1(C)C2(C)C (centres unmarked) [Material 603] | K (Log of liquid dish neat product liquid-air partition coefficient greater than or equal to −7) | K (Log of liquid dish neat product liquid-air partition coefficient greater than or equal to −7) | – | – |
| CCC(=O)C=CC1C(C)=CCCC1(C)C (centres unmarked) [Material 700] | K (Log of liquid dish neat product liquid-air partition coefficient greater than or equal to −7) | – | – | – |
| C=CCOCCc1ccccc1 [Material 744] | – | K (Log of liquid dish neat product liquid-air partition coefficient greater than or equal to −7) | – | – |
| CC1=CC(C)C2(CCCC(C)(C)C2=O)CC1 (centres unmarked) [Material 1022] | K (Log of liquid dish neat product liquid-air partition coefficient greater than or equal to −7) | K (Log of liquid dish neat product liquid-air partition coefficient greater than or equal to −7) | – | – |
| C=C(C)C1CC=C(C)C(O)C1 (centres unmarked) [Material 170] | – | – | K (Log of liquid dish neat product liquid-air partition coefficient greater than or equal to −7) | – |
| C=CCCCCCCCCC(=O)OCC [Material 381] | – | – | K (Log of liquid dish neat product liquid-air partition coefficient greater than or equal to −7) | – |
| CCOC(C)OC1CCCCCCCCCCC1 (centres unmarked) [Material 363] | – | – | K (Log of liquid dish neat product liquid-air partition coefficient greater than or equal to −7) | – |
